Results on 17 compounds are retold here after PubChem BioAssay (NCI).

“And” between values parts separate entries of the source, which are not always exact repeats. Equal entries are not always repeated.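 Five concentrations, 48 hours, 96-well plates. GI50 = concentration required for 50% inhibition of growth. TGI marks complete inhibition of growth.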

For one test, the system named is HT29 colon. Kind of test: growth of human tumour cells (NCI), 48 h.
Take `CO/N=C(\COc1ccc2c(c1)[nH]c1ccccc12)c1ccc(F)cc1`: the GI50 is over 100 µM and the TGI was over 100 µM.
With `C1CCC([PH+](C2CCCCC2)C2CCCCC2[PH+](C2CCCCC2)C2CCCCC2)CC1.[Au].[CH-]1CCCCC1CC1CCCC[N-]1` (configuration not stated), the GI50 was 0.342 µM and the TGI came to 1.98 µM.
For the compound `COc1cc2c3c(n(C)c(=O)c2cc1OC)-c1cc2c(cc1/C3=C\CCCCN1C(=O)c3ccccc3C1=O)OCO2`, the GI50 is 18 µM and the TGI was over 100 µM.
Turning to `N#Cc1c(N2CCOCC2)nc(=S)[nH]c1-c1ccco1`, the GI50 is 9.56 µM and the TGI is over 100 µM.
`NNC(=O)CS(=O)(=O)Nc1ncccn1` came in with a TGI of over 100 µM.
For the compound `O=C1NC(=O)C(N2C(=O)c3ccccc3C2=O)CC1O` (configuration not stated), the GI50 was over 100 µM and the TGI is over 100 µM.
The compound `COc1cc2c(cc1C1COc3cc4occc4cc3C1=O)OCO2` (configuration not stated) displayed a TGI of over 100 µM.
Consider `CCOC(=O)C1=C(C)N(c2ccc(Cl)cc2)[C@]2(C#N)C(O)=C(Cl)C(Cl)=C(O)[C@]12C#N`, for which the GI50 is 51.9 µM and the TGI is over 100 µM.
The like results for `O=C1/C(=C/c2ccccc2[N+](=O)[O-])Cc2ccccc21` were, in that order, 0.931 µM and 3.15 µM.

In a further test the test system is SK-MEL-5 melanoma. Put plainly: growth of human tumour cells (NCI), 48 h.
In the case of `COc1cc(N2C(=O)[C@H](O)C2c2ccc(SC)cc2)cc(OC)c1OC` (some centres not stated), the GI50 is under 0.01 µM and the TGI amounted to 0.0304 µM.
As for `O=C1OCC2=C1C(c1ccc(Cl)c(Cl)c1)c1cc3c(cc1N2CCO)OCCO3` (configuration not stated), the GI50 is 0.148 µM and the TGI turned out to be 6.37 µM.
With `O=C1c2ccccc2-c2cc([N+](=O)[O-])c([N+](=O)[O-])cc21`, the TGI turned out to be 3.94 µM.
For the compound `O=C(/C=C/c1cc2ccccc2[nH]c1=O)/C=C/c1cc2ccccc2[nH]c1=O`, the GI50 is 23.5 µM and the TGI was over 100 µM.
Take `Nc1nc(OCc2ccccc2)c2[nH]cnc2n1`: the GI50 is 34.5 µM and 35.4 µM; the TGI is 193 µM and 149 µM.
As for `Fc1ccc(/C=N/n2c(-c3ccc(F)c(Cl)c3)nn(CNc3ccccc3C(F)(F)F)c2=S)cc1`, the GI50 was 33 µM and the TGI was over 100 µM.
In the case of `CN[C@@H](C)C(=O)N[C@H](C(=O)N1CCC[C@H]1C(=O)Nc1sc(-c2ncco2)nc1-c1ccccc1)C1CCCCC1`, the GI50 was 9.93 µM and the TGI was determined as 24 µM.
Turning to `CC1=C2[C@@H](CC1)[C@]1(C)O[C@@](c3ccccc3)(C[C@H]1OC(=O)CO)[C@H]2OC(=O)/C=C/c1ccccc1`, the GI50 was 15.3 µM and the TGI stood at 29.7 µM.
Take `CO/N=C(\COc1ccc2c(c1)[nH]c1ccccc12)c1ccc(F)cc1`: the GI50 was over 100 µM and the TGI was over 100 µM.
For `C1CCC([PH+](C2CCCCC2)C2CCCCC2[PH+](C2CCCCC2)C2CCCCC2)CC1.[Au].[CH-]1CCCCC1CC1CCCC[N-]1` (configuration not stated), the GI50 is 0.288 µM and the TGI amounted to 0.813 µM.
For `COc1cc2c3c(n(C)c(=O)c2cc1OC)-c1cc2c(cc1/C3=C\CCCCN1C(=O)c3ccccc3C1=O)OCO2`, the GI50 is 13 µM and the TGI stood at 39.4 µM.
For `N#Cc1c(N2CCOCC2)nc(=S)[nH]c1-c1ccco1`, the GI50 was 5.06 µM and the TGI was over 100 µM.
As for `NNC(=O)CS(=O)(=O)Nc1ncccn1`, the TGI is over 100 µM.
Same read-out and setting: the figure for `COc1cc2c(cc1C1COc3cc4occc4cc3C1=O)OCO2` (configuration not stated) is over 100 µM.
In the case of `CCOC(=O)C1=C(C)N(c2ccc(Cl)cc2)[C@]2(C#N)C(O)=C(Cl)C(Cl)=C(O)[C@]12C#N`, the GI50 is over 100 µM and the TGI is over 100 µM.
For `O=C1/C(=C/c2ccccc2[N+](=O)[O-])Cc2ccccc21`, the GI50 is 3.11 µM and the TGI came out at 14 µM.

Another test relates to OVCAR-5 ovarian. Kind of test: growth of human tumour cells (NCI), 48 h.
In the case of `COc1cc(N2C(=O)[C@H](O)C2c2ccc(SC)cc2)cc(OC)c1OC` (some centres not stated), the GI50 is 0.0237 µM and the TGI is over 100 µM.
The corresponding values for `O=C1OCC2=C1C(c1ccc(Cl)c(Cl)c1)c1cc3c(cc1N2CCO)OCCO3` (configuration not stated) are 0.736 µM and over 33.2 µM.
For the compound `O=C1c2ccccc2-c2cc([N+](=O)[O-])c([N+](=O)[O-])cc21`, the TGI is 5.41 µM.
Consider `O=C(/C=C/c1cc2ccccc2[nH]c1=O)/C=C/c1cc2ccccc2[nH]c1=O`, for which the GI50 was over 49 µM and the TGI was over 100 µM.
In the case of `Nc1nc(OCc2ccccc2)c2[nH]cnc2n1`, the GI50 is 52.7 µM and 42.6 µM; the TGI is 241 µM and 240 µM.
Turning to `Fc1ccc(/C=N/n2c(-c3ccc(F)c(Cl)c3)nn(CNc3ccccc3C(F)(F)F)c2=S)cc1`, the GI50 is over 100 µM and the TGI was over 100 µM.
Regarding `CN[C@@H](C)C(=O)N[C@H](C(=O)N1CCC[C@H]1C(=O)Nc1sc(-c2ncco2)nc1-c1ccccc1)C1CCCCC1`, the GI50 is 38 µM and the TGI was over 64.6 µM.
Consider `CC1=C2[C@@H](CC1)[C@]1(C)O[C@@](c3ccccc3)(C[C@H]1OC(=O)CO)[C@H]2OC(=O)/C=C/c1ccccc1`, for which the GI50 is 20.2 µM and the TGI was 47.4 µM.
With `CO/N=C(\COc1ccc2c(c1)[nH]c1ccccc12)c1ccc(F)cc1`, the GI50 is over 100 µM and the TGI was over 100 µM.
`C1CCC([PH+](C2CCCCC2)C2CCCCC2[PH+](C2CCCCC2)C2CCCCC2)CC1.[Au].[CH-]1CCCCC1CC1CCCC[N-]1` (configuration not stated): the GI50 is 0.452 µM and the TGI is 2.01 µM.
The corresponding values for `COc1cc2c3c(n(C)c(=O)c2cc1OC)-c1cc2c(cc1/C3=C\CCCCN1C(=O)c3ccccc3C1=O)OCO2` are 74 µM and over 100 µM.
With `N#Cc1c(N2CCOCC2)nc(=S)[nH]c1-c1ccco1`, the GI50 is 4.18 µM and the TGI was 88.3 µM.
In turn, `NNC(=O)CS(=O)(=O)Nc1ncccn1` showed a TGI of over 100 µM.
For the compound `O=C1NC(=O)C(N2C(=O)c3ccccc3C2=O)CC1O` (configuration not stated), the GI50 is over 100 µM and the TGI was over 100 µM.
As to `COc1cc2c(cc1C1COc3cc4occc4cc3C1=O)OCO2` (configuration not stated), the TGI is over 100 µM.
